Results from US20200179312A1, “ANALOGUES OF CYSTEAMINE AS THERAPEUTIC AGENTS FOR CYSTIC FIBROSIS” (I.E.R.F.C. EUROPEAN INSTITUTE FOR CYSTIC FIBROSIS RESEARCH, priority 2018, published 2020).

What was measured:
TG2 = target: T1, TG2 (Homo sapiens, UniProt P21980); experiment: Inhibition of the PDI activity of TG2; format: biochemical
T1 sequence (P21980 1-687): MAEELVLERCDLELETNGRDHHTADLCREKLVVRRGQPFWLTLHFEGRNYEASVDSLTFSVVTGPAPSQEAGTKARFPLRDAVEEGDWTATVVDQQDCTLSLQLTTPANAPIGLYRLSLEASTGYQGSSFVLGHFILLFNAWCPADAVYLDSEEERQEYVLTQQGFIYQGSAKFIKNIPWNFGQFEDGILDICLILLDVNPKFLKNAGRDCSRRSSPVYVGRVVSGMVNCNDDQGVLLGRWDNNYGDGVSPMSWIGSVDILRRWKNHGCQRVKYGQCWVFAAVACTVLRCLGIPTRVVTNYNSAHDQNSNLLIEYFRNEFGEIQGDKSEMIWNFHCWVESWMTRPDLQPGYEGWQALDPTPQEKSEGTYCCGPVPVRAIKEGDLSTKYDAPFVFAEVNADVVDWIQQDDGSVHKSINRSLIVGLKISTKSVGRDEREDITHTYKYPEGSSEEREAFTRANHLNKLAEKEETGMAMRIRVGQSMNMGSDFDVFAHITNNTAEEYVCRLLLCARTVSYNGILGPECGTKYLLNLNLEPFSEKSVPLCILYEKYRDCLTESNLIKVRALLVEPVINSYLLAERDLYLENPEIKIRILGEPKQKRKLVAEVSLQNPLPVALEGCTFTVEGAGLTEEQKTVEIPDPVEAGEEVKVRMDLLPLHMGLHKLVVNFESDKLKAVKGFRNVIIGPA

CFTR = target: T2, CFTR (Mus musculus, UniProt P26361, DEL508-508); experiment: Ussing chamber CFTR function in CftrF508del mice; format: in vivo
T2 construct: the Ussing chamber experiments (on small intestinal tissues); from tissue; host or cells: small intestine (Ussing chamber); lung and small intestine homogenates (immunoblot) of CftrF508del mice
Description: Driven by the positive outcome of the cell lines (immortalized and primary nasal cell) experiments, we next investigated the possibility that IE1 could rescue the CFTR protein and function as well as re-establish the autophagy pathway in CF mice model. To test this hypothesis, we used F508del-Cftr homozygous (CftrF508del\F508del) mice and control mice (Cftr WT). CftrF508del mice were administered intraperitoneally (i.p.) for 5 d with cysteamine or different concentrations of IE1 (FIG. 7). […] Next, CftrF508del mice were administered intraperitoneally (i.p.) for 5 d with cysteamine or with 3 different concentrations of IE1 (0.05M, 0.025M or 0.0125M) followed by 10 d or 20 d of vehicle only (FIG. 9).
CF mice homozygous for the delF508-CFTR mutation (abbreviated CftrF508del) in the 129/FVB outbred background (CftrtmlEUR, F508del, FVB/129) were obtained from Erasmus Medical Center Rotterdam, The Netherlands (CF coordinated action program EU FP6 LSHM-CT-2005-018932). These studies and procedures were approved by the local Ethics Committee for Animal Welfare (IACUC No 713). Young adult CF mice and their wild-type (wt) littermates were housed in static isolator cages at the animal care specific pathogen-free facility of Charles River (Calco, Italy). […]

F508delCFTR = F508delCFTR (Homo sapiens, UniProt P13569, DEL508-508); experiment: SPQ assay in primary nasal cells collected by nasal brushing from CF patients; format: cell-based; set-up: Freshly isolated brushed nasal epithelial cells were collected by nasal brushing; endogenous in cells; host or cells: primary nasal epithelial cells from F508del-homozygous CF patients
Description: The compounds of formula I have marked effects on CFTR function. A representative number of compounds of formula I (Compounds IE1-IE4; Table I) were tested in comparison to cysteamine and amifostine through SPQ assay in F508delCFTR homozygous bronchial epithelial cell lines (CFBE41o-) transfected with F508delCFTR (FIG. 1) and in ex vivo in nasal cells collected by nasal brushing from CF patients (FIGS. 2A and B). Freshly isolated brushed nasal epithelial cells were collected by nasal brushing, as previously described (21, 21) from 10 F508del-CFTR homozygous CF patients and from 5 non-CF healthy volunteers recruited from staff at the same time points. Both patients and healthy volunteers gave written informed consent. […] Brushes with cells were immediately transferred into RPMI 1640 medium (Invitrogen) containing 1% penicillin-streptomycin (Lonza, 17-602E), in 15-ml sterilized tubes. The tubes were incubated at 37° C. for 2 h on a thermo shaker, to remove all cell from brushes; the brushes were then removed and the cells centrifuged at 800×g (2000 rpm) for 20 min. The supernatant fractions were discarded and the cell pellet treated with […] of trypsin-versene (EDTA) solution (Lonza, 17-161) for 4 min at 37° C. to disaggregate possible cell clusters. Trypsin solution was inactivated by adding 3 ml of serum-free Bronchial Epithelial cell Growth Medium BEGM (Clonetics, Lonza, CC3170). After centrifugation at 800×g (2000 rpm) for 10 min, cells were placed in […] 25 flasks (Sarstedt Ltd, CS300) with 10 ml of BEGM medium. Nonspecific epithelial cells were removed during the daily cell washing and medium changes.

F508delCFTR, sequence (P13569 with tags, fused parts or gaps DEL508-508): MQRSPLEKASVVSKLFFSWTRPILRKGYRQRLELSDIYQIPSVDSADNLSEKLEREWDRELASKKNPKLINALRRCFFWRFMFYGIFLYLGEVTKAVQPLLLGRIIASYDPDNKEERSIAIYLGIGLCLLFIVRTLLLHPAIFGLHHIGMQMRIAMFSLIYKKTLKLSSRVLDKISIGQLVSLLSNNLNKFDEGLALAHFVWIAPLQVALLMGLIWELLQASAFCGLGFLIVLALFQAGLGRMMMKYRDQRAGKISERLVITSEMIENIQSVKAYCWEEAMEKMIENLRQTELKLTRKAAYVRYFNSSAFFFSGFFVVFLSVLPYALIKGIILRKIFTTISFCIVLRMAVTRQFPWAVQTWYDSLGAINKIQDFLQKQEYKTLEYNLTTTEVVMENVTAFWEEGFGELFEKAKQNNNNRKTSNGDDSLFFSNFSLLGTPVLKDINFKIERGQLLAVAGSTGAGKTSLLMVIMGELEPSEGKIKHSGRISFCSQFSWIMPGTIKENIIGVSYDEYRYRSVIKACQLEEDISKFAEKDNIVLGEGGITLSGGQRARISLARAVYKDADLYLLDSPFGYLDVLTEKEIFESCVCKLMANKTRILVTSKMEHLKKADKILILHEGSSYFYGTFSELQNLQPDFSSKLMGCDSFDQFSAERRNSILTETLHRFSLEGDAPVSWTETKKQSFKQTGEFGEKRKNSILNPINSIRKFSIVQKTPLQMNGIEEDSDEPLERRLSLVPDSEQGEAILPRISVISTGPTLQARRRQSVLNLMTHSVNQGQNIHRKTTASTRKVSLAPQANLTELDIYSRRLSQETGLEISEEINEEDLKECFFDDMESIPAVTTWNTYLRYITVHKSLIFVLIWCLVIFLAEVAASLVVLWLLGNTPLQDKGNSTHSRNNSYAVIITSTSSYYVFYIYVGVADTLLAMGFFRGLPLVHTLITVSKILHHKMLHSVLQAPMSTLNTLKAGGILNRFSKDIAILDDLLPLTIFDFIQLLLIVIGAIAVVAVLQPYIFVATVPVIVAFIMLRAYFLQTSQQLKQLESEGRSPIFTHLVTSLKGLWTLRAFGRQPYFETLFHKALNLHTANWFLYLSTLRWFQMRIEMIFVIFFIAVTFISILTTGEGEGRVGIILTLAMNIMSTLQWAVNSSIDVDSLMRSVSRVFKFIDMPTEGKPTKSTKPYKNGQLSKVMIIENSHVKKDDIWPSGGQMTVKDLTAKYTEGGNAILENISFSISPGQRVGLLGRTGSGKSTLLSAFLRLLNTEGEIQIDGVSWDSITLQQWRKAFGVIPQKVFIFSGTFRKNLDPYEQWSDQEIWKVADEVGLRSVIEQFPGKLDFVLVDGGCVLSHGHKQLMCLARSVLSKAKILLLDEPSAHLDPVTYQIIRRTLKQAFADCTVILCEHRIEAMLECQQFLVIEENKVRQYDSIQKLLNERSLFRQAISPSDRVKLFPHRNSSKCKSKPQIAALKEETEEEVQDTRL
T2 sequence (P26361 with tags, fused parts or gaps DEL508-508): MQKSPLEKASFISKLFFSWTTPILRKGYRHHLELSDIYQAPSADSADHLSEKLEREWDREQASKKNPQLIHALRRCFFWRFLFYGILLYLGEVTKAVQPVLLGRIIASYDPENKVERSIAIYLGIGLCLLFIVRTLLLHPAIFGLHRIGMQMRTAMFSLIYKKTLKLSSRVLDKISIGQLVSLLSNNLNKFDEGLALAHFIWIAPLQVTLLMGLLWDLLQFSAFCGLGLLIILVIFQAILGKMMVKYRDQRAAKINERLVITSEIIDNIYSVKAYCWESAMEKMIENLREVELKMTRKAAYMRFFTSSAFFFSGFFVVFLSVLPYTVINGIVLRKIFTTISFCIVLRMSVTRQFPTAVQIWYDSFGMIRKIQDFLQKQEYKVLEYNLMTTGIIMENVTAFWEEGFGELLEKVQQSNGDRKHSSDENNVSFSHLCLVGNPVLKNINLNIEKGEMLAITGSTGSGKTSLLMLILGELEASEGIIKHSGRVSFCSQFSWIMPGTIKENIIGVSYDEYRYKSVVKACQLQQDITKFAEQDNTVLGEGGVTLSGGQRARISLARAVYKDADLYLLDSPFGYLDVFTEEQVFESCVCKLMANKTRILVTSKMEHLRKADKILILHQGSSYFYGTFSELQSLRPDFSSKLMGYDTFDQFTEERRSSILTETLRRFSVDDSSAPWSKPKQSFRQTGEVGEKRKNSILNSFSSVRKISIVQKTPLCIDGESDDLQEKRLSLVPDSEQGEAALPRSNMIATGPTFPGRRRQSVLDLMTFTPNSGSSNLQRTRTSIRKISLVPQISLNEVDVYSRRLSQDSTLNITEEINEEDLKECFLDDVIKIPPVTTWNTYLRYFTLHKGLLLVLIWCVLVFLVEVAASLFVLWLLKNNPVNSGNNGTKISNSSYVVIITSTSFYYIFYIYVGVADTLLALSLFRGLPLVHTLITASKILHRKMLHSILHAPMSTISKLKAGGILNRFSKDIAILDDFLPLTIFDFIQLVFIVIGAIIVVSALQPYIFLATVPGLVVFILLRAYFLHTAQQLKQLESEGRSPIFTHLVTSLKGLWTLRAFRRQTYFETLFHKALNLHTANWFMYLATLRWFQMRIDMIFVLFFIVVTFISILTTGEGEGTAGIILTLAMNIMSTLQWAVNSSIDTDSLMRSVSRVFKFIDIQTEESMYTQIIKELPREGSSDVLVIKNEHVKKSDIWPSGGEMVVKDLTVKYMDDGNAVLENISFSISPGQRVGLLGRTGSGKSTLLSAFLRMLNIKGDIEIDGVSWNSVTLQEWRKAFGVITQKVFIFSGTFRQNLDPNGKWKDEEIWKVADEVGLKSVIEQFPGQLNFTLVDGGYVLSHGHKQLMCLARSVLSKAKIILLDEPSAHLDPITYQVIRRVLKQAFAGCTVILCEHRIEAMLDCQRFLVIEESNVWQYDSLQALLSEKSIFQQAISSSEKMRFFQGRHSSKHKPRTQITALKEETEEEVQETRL

- Ability to inhibit the PDI activity of TG2 (TG2): confirmed
- Sustaining CFTR function after wash out, compared with cysteamine (CFTR; i.p. 5 d at 0.05M, 0.025M or 0.0125M, then 20 d of vehicle only): more effective than cysteamine
- Rescue of CFTR function (Ussing chamber, small intestinal tissues) (CFTR; i.p. for 5 d, IE1 concentration 0.05 to 0.00125): highly effective
- CFTR function after wash out with EGCG added (F508delCFTR; 48 h after wash out, epigallocatechin gallate added, nasal primary cells): effect is preserved
- CFTR function after wash out (F508delCFTR; 48 h after wash out, nasal primary cells): loses its efficacy
- Efficacy on CFTR function compared with VX-809 (F508delCFTR; VX-809 3 μM, FIG. 2A): more efficacious than VX-809
- CFTR function after wash out (F508delCFTR; up to 24 h after wash out, nasal cells): able to maintain CFTR function
Structure (SMILES): NCCCS [IE1, 3-aminopropane-1-thiol]
